Laboratory results as given in patent US7449495B2, “Retinoid derivatives with antiangiogenic, antitumoral and proapoptotic activities” (Sigma-Tau Industrie Farmaceutiche Riunite S.p.A., priority 2001, dated 2008).

What was measured:
[1] = test system: Human ovarian carcinoma IGROV-1/Pt (platinum resistant); test: Cytotoxicity test (sulphorodamine B), IGROV-1/Pt; format: cell-based; conditions: 24 h incubation, survival 48 h after removal
From the text: (§1) Different cell lines deriving from solid tumors were also used. • 1. Human prostate carcinoma PC3 and DU145. These cell lines were maintained in RPMI 1640 medium containing 10% FCS, 1% sodium pyruvate and 1% glutamine; • 2. Human colon adenocarcinoma LoVo. This cell line was maintained in HAM's F-12 medium, containing 10% FCS and 1% glutamine. • 3. Human ovarian carcinoma such as A2780 and A2780/Dx, sensitive and resistant to drugs, respectively (doxorubicin, taxol, etoposide, vincristine); IGROV-1 and IGROV-1/Pt, sensitive and resistant to platinum-based chemotherapy, respectively, were maintained in RPMI 1640 medium containing 10% FCS, 1% sodium pyruvate and 1% glutamine; • 4. Human melanoma MeWo and MeS 2.21, glioblastoma GBM, no small cell lung carcinomas A431, NCI—H460, osteosarcomas SAOS and U2OS were maintained in RPMI 1640 medium containing 10% FCS, 1% sodium pyruvate and 1% glutamine.
(§2) The cytotoxicity tests were carried out using NB4 or HL-60 cells in suspension (10000/well). The cells were seeded in a volume of 250 μl in 96 well plates and incubated for 24 hours at 37° C. […] The optical density was measured using a Multiskan spectrophotometer at 540 nm. […]
(§3) Cell survival was determined by incubation with ST1926 for 24 hours, 48 hours after the removal of the compound. […]

[2] = test system: glioblastoma GBM; test: Cytotoxicity test (sulphorodamine B), GBM; format: cell-based; conditions: Homo sapiens, 24 h incubation, survival 48 h after removal
From the text: as §1, §2, §3

[3] = test system: no small cell lung carcinoma NCI-H460; test: Cytotoxicity test (sulphorodamine B), NCI-H460; format: cell-based; conditions: Homo sapiens, 24 h incubation, survival 48 h after removal
From the text: as §1, §2, §3

[4] = test system: A2780/Dx multidrug-resistant human ovarian carcinoma cells; test: Cytotoxicity in combination with TRAIL, A2780/Dx; format: cell-based; conditions: 72 hours, value >1 synergism (FIG. 1)
Experimental: FIG. 1 is a graph showing the interaction between ST1926 and TRAIL in A2780/Dx multidrug-resistant human ovarian carcinoma cells at different concentrations of TRAIL.
A study of cytotoxicity of ST1926 in combination with TRAIL was performed in two different tumor cell lines such as M109 murine lung carcinoma and A2780/Dx multidrug-resistant human ovarian carcinoma. Cells were maintained in RPMI 1640 medium containing 10% FCS, 1% sodium pyruvate and 1% glutamine.
The cells were seeded in a volume of 250 μl in 96 well plates and incubated for 24 hours at 37° C. The following day, test compound ST 1926 [(2E)-3-[3′-(1-Adamantyl)-4′-hydroxy[1,1′-biphenyl]-4-yl]-2-propenoate/ic acid] or TRAIL were added at increasing concentrations, and the cells were incubated for a further 72 hours at 37° C. in a humidified atmosphere containing 5% CO2. On the 5th day, the supernatant was removed by upturning the plates. 200 μl of PBS and 50 μl of cold, 80% TCA were added. The plates were then left to incubate on ice for at least 1 hour. The TCA was removed by upturning; the plates were washed three times by immersion in distilled water and dried first on paper, then with a jet of hot air. […] The optical density was measured using a Multiskan spectrophotometer at 540 nm.
The interaction between ST1926 and TRAIL was determined by using the analysis of Drewinko et al. (Cancer Biochem. Biophys. 1: 187-195, 1976). […]

[5] = test system: human no small cell lung carcinoma NCI-H460; test: Antitumoral activity in human no small cell lung carcinoma model NCI-H460; format: in vivo; conditions: NCI-H460, 15 mg/kg po
Experimental: The ST1926 solution was prepared immediately before use and solubilised in cremophor:ethanol 1:1 and subsequently diluted 1:4 in buffered saline solution. The animal treatments were administered in a volume of 10 ml/kg. […] Measurements of tumor dimensions were performed using a digital calliper (Vernier Caliper) twice weekly, from the time in which the mass was measurable. The tumor mass was evaluated from the size of the two principal dimensions (length and breadth), expressed in mm, applying the formula (length×breadth^2)/2, that is, the tumor volume in mm3. For each experimental group, the percentage of tumor volume inhibition was calculated (TVI %), with respect to the control, namely (100−(T/C %). TVI was evaluated 2 days after the final administration of ST1926.
A comparison between the TVI values obtained for each group was performed using the non parametric Mann Whitney test for non-paired data, using the Instat software from GraphPad inc.

## O=C(O)/C=C/c1ccc(-c2ccc(O)c(C34CC5CC(CC(C5)C3)C4)c2)cc1 [ST1926, E-4-(3-(1-adamantyl)-4-hydroxyphenyl)cinnamic acid]
[1]
  IC50: 330 nM
[2]
  IC50: 180 nM
[3]
  IC50: 190 nM
[4]
  interaction between ST1926 and TRAIL (analysis of Drewinko et al.): synergic activity
[5]; qdx3x3w
  BWL % Max: 4%
  Lethality: 0/8
  TVI % ± SE: *52 ± 7%
[5]; qdx4x3w
  BWL % Max: 14%
  Lethality: 0/8
  TVI % ± SE: **38 ± 8%
[5]; qdx5x3w
  BWL % Max: 4%
  Lethality: 0/8
  TVI % ± SE: *40 ± 2%
